According to US11136329B2, “JAK inhibitors” (Vimalan Biosciences, Inc., priority 2019, dated 2021):

What was measured:
Format in all cases: biochemical
[1] = target: TYK2 (Homo sapiens (Human), UniProt P29597); experiment: JAK/TYK2 assay (Kinase Glo luminescence), TYK2; conditions: 9 nM enzyme, 2 uM ATP, 30 uM IRS-1, 1 hr
Summary of the method: (§1)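 Compound in DMSO was combined with 2× enzyme, then 2× substrate mixture started the reaction, which proceeded for 1-2 hours at 25° C. Kinase Glo reagent was added to stop it and produce luminescence. Wells lacking compound served as the positive control.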

[2] = target: JAK3 (Homo sapiens (Human), UniProt P52333); experiment: JAK/TYK2 assay (Kinase Glo luminescence), JAK3; conditions: 1.5 nM enzyme, 2 uM ATP, 4 uM pEY, 1 hr
JAK3, sequence (P52333 whole entry, species assumed): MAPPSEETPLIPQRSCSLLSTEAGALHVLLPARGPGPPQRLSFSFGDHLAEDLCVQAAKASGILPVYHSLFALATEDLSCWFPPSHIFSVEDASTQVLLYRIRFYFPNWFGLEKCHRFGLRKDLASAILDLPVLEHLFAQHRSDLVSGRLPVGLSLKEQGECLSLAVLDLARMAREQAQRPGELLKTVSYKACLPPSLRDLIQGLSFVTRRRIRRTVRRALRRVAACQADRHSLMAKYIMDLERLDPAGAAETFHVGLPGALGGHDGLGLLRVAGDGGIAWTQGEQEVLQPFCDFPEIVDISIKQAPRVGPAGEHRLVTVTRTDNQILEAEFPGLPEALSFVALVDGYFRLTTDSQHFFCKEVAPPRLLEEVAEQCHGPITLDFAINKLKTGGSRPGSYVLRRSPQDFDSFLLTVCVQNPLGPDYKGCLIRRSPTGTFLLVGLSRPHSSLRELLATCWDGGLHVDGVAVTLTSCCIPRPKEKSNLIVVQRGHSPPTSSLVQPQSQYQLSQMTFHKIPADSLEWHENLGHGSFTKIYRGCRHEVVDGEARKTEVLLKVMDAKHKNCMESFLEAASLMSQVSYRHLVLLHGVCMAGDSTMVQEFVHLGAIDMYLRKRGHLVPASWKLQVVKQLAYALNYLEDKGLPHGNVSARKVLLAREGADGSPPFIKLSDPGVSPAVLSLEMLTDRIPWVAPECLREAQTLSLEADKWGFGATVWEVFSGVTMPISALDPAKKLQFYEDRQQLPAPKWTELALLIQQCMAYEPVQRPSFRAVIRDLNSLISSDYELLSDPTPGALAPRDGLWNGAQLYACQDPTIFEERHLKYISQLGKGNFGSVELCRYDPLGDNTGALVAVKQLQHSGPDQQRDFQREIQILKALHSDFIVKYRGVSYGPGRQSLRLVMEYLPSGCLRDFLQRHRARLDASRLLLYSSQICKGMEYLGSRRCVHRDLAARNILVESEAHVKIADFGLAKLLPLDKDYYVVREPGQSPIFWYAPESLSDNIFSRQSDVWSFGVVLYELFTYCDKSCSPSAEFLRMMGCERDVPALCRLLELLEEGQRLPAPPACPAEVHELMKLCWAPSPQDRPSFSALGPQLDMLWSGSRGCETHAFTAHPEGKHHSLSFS
Summary of the method: as §1

[3] = target: JAK2 (Homo sapiens (Human), UniProt O60674); experiment: JAK/TYK2 assay (Kinase Glo luminescence), JAK2; conditions: 0.8 nM enzyme, 2 uM ATP, 4 uM pEY, 1 hr
JAK2, sequence (O60674 whole entry, species assumed): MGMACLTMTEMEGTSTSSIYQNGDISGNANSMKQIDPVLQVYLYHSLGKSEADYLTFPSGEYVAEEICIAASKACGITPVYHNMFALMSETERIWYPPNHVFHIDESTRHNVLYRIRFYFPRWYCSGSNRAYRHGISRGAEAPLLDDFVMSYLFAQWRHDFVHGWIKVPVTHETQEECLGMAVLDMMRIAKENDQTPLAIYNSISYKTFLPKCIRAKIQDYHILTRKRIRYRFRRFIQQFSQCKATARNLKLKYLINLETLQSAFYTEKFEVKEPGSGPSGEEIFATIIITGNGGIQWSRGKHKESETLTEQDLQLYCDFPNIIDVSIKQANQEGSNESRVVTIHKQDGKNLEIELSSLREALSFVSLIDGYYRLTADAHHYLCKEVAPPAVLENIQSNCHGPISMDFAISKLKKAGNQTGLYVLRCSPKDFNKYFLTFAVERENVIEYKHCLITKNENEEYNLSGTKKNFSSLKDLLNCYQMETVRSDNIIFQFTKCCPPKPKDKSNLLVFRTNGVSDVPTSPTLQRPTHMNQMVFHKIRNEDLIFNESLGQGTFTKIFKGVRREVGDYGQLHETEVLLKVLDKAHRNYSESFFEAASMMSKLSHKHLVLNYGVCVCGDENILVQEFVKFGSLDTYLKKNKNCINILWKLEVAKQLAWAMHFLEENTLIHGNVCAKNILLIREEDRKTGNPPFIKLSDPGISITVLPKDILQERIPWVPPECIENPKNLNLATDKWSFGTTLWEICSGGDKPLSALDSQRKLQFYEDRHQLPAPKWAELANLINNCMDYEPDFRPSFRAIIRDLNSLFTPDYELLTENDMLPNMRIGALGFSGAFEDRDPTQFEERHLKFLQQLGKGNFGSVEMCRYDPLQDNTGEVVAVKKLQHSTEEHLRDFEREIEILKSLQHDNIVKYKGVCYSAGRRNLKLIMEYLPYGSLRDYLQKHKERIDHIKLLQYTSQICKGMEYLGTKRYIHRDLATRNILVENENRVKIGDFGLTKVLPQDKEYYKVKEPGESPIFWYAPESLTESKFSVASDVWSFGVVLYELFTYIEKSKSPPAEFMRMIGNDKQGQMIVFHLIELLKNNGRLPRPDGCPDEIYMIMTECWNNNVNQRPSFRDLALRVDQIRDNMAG
Summary of the method: as §1

[4] = target: JAK1 (Homo sapiens (Human), UniProt P23458); experiment: JAK/TYK2 assay (Kinase Glo luminescence), JAK1; conditions: 7.5 nM enzyme, 2 uM ATP, 30 uM IRS-1, 1 hr
JAK1, sequence (P23458 whole entry, species assumed): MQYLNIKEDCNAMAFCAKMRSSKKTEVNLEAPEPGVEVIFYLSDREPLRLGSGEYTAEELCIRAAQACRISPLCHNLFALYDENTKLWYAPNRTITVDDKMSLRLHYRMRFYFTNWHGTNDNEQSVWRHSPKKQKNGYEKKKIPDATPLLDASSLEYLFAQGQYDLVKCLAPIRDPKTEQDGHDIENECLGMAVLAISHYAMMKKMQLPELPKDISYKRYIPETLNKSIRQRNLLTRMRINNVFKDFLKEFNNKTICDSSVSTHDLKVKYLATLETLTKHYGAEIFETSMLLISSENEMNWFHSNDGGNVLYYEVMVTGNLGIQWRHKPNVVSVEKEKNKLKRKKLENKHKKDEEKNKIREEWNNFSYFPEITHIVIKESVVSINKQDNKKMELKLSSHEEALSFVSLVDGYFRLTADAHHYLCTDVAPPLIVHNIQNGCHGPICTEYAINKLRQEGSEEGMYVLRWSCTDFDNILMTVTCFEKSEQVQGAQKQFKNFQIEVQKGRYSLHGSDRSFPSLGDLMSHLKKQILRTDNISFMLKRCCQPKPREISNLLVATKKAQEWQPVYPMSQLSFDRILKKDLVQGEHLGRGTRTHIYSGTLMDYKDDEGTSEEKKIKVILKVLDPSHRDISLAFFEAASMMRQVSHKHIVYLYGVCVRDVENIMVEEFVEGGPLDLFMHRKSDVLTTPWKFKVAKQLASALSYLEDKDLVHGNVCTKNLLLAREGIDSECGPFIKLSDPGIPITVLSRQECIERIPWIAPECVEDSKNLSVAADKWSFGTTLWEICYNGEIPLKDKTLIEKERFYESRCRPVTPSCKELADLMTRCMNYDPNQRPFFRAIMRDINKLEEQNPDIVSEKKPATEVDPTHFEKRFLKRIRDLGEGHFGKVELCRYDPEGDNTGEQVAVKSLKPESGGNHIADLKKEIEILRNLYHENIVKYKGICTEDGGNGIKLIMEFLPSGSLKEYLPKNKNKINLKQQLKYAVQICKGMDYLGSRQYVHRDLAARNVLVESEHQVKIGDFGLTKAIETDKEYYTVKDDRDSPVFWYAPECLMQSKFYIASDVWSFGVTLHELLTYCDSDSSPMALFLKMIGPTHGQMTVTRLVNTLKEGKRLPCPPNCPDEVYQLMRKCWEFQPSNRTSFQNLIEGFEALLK
Summary of the method: as §1

TYK2, sequence (P29597 whole entry, species assumed): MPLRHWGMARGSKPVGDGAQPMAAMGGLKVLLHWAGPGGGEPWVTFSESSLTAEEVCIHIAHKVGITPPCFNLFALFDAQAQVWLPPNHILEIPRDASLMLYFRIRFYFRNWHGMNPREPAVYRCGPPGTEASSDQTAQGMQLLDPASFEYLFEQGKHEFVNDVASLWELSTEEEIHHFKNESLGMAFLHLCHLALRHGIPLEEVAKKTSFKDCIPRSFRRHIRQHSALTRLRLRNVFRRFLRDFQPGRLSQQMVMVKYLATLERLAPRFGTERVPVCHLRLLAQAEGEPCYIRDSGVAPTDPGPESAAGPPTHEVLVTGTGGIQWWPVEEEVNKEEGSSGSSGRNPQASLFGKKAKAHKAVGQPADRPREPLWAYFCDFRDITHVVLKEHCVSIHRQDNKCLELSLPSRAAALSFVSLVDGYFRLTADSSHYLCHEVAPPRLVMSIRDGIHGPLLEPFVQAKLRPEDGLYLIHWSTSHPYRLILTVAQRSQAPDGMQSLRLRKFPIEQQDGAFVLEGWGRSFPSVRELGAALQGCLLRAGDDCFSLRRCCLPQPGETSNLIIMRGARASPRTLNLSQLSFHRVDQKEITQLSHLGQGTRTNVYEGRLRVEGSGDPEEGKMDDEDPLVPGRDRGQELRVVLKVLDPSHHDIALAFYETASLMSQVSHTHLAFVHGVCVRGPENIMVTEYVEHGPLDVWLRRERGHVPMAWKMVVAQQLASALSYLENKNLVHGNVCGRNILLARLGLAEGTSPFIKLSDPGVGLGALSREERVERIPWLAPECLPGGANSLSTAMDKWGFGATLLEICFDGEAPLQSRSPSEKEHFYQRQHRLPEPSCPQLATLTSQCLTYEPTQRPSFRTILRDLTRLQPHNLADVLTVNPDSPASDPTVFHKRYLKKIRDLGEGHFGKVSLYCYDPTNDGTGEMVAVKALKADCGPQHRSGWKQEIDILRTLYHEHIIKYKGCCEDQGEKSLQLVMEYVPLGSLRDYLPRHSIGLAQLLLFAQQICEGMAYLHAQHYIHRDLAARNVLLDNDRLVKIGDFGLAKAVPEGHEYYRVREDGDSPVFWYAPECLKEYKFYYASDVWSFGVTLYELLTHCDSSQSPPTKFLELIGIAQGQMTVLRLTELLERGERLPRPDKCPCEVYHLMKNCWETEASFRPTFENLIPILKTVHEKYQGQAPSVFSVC

Compound	IC50 [1] [nM]	IC50 [2] [nM]	IC50 [3] [nM]	IC50 [4] [nM]
CC(C(=O)O)n1cc(Nc2ncc3ccn(C[C@H]4CC[C@H](O)CC4)c3n2)cn1 (stereo partly drawn) [Compound 116, 2-(4-((7-(((1r,4r)-4-hydroxycyclohexyl)methyl)-7H-pyrrolo[2,3-d]pyrimidin-2-yl)amino)-1H-pyrazol-1-yl)propanoic acid]	< 100	< 100	< 100	< 100
O=C(O)Cn1cc(Nc2ncc3ccn(CC4CCCC(F)(F)C4)c3n2)cn1 (stereo not drawn) [Compound 38, 2-(4-((7-((3,3-difluorocyclohexyl)methyl)-7H-pyrrolo[2,3-d]pyrimidin-2-yl)amino)-1H-pyrazol-1-yl)acetic acid]	< 100	< 100	< 100	< 100
CCOC(=O)Cn1cc(Nc2ncc3ccn(CC4CCCC4)c3n2)cn1 [Compound 17, ethyl 2-(4-((7-(cyclopentylmethyl)-7H-pyrrolo[2,3-d]pyrimidin-2-yl)amino)-1H-pyrazol-1-yl)acetate]	< 100	< 100	< 100	< 100
CCC(CC)Cn1ccc2cnc(Nc3cnn(CC(=O)OC(C)C(C)O)c3)nc21 (stereo not drawn) [Compound 113, 3-hydroxybutan-2-yl 2-(4-((7-(2-ethylbutyl)-7H-pyrrolo[2,3-d]pyrimidin-2-yl)amino)-1H-pyrazol-1-yl)acetate]	< 100	< 100	< 100	< 100
CCOC(=O)Cn1cc(Nc2ncc3ccn(CC(C(C)C)C(C)C)c3n2)cn1 [Compound 50, ethyl 2-(4-((7-(2-isopropyl-3-methylbutyl)-7H-pyrrolo[2,3-d]pyrimidin-2-yl)amino)-1H-pyrazol-1-yl)acetate]	< 100	< 100	< 100	< 100
CCOC(=O)c1ccc(Nc2ncc3ccn(CC(CC)CC)c3n2)cc1 [Compound 26, ethyl 4-((7-(2-ethylbutyl)-7H-pyrrolo[2,3-d]pyrimidin-2-yl)amino)benzoate]	100 to 1000	100 to 1000	100 to 1000	100 to 1000
CCOC(=O)Cn1cc(Nc2ncc3ccn(CC45CC6CC(CC(C6)C4)C5)c3n2)cn1 [Compound 34, ethyl 2-(4-((7-(((s,3s)-adamantan-1-yl)methyl)-7H-pyrrolo[2,3-d]pyrimidin-2-yl)amino)-1H-pyrazol-1-yl)acetate]	< 100	< 100	< 100	100 to 1000
CCC(Cn1ccc2cnc(Nc3cnn(CC(=O)OCC(O)CO)c3)nc21)C(C)C (stereo not drawn) [Compound 111, 2,3-dihydroxypropyl 2-(4-((7-(2-ethyl-3-methylbutyl)-7H-pyrrolo[2,3-d]pyrimidin-2-yl)amino)-1H-pyrazol-1-yl)acetate]	< 100	< 100	< 100	< 100

Further lines, results first:

IC50 [1] [nM]	IC50 [2] [nM]	IC50 [3] [nM]	IC50 [4] [nM]	Compound
< 100	< 100	< 100	< 100	CC[C@H](Cn1ccc2cnc(Nc3cnn(CC(=O)O[C@H]4CCN(C)C4)c3)nc21)C(C)C [Compound 138, (S)-1-methylpyrrolidin-3-yl 2-(4-((7-((S)-2-ethyl-3-methylbutyl)-7H-pyrrolo[2,3-d]pyrimidin-2-yl)amino)-1H-pyrazol-1-yl)acetate]
< 100	< 100	< 100	< 100	CCOC(=O)Cn1cc(Nc2ncc3ccn(C[C@H]4CC[C@H](N)CC4)c3n2)cn1 [Compound 127, ethyl 2-(4-((7-(((1r,4r)-4-aminocyclohexyl)methyl)-7H-pyrrolo[2,3-d]pyrimidin-2-yl)amino)-1H-pyrazol-1-yl)acetate]
< 100	< 100	< 100	< 100	CCC(CC)Cn1ccc2cnc(Nc3cnn(C4CCOC4=O)c3)nc21 (stereo not drawn) [Compound 142, 3-(4-((7-(2-ethylbutyl)-7H-pyrrolo[2,3-d]pyrimidin-2-yl)amino)-1H-pyrazol-1-yl)dihydrofuran-2(3H)-one]
< 100	< 100	< 100	< 100	CCOC(=O)CCn1cc(Nc2ncc3ccn(C[C@@H](CC)C(C)C)c3n2)cn1 [Compound 119, ethyl (S)-3-(4-((7-(2-ethyl-3-methylbutyl)-7H-pyrrolo[2,3-d]pyrimidin-2-yl)amino)-1H-pyrazol-1-yl)propanoate]
< 100	< 100	< 100	< 100	CCOC(=O)CCn1cc(Nc2ncc3ccn(C[C@H]4CC[C@H](O)CC4)c3n2)cn1 [Compound 121, ethyl 3-(4-((7-(((1r,4r)-4-hydroxycyclohexyl)methyl)-7H-pyrrolo[2,3-d]pyrimidin-2-yl)amino)-1H-pyrazol-1-yl)propanoate]
< 100	< 100	< 100	< 100	CCOC(=O)C(C)n1cc(Nc2ncc3ccn(C[C@@H](CC)C(C)C)c3n2)cn1 (stereo partly drawn) [Compound 118, ethyl 2-(4-((7-((S)-2-ethyl-3-methylbutyl)-7H-pyrrolo[2,3-d]pyrimidin-2-yl)amino)-1H-pyrazol-1-yl)propanoate]
< 100	< 100	< 100	< 100	CCOC(=O)Cn1cc(Nc2ncc3ccn(C[C@H]4CCC[C@@H](OC)C4)c3n2)cn1 [Compound 130, ethyl 2-(4-((7-(((1S,3R)-3-methoxycyclohexyl)methyl)-7H-pyrrolo[2,3-d]pyrimidin-2-yl)amino)-1H-pyrazol-1-yl)acetate]
